This is an account of results in patent US9376418B2, “Substituted pyridine spleen tyrosine kinase (SYK) inhibitors” (Merck Sharp & Dohme Corp., priority 2012, dated 2016).

A value given as a limit tells only on which side of the number the result lay.

For the first assay, the target named is T1, recombinant human GST-SYK (Homo sapiens, UniProt P43405).
T1 construct: purchased Carna Biosciences 08-176
Kind of assay: Homogeneous Time-Resolved Fluorescence (HTRF) assay for the recombinant human Syk enzyme. In kind it is biochemical. The note with it: HTRF assay, recombinant human GST-SYK; IC50 given as class symbols; read-out: rhSYK Activity. Summed up:
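Phosphotyrosine product from a biotinylated Syk substrate peptide was detected by HTRF (europium antibody/SA-APC, read after 30 min) following a 45-minute room-temperature reaction at 25 μM ATP, with […] preincubated 10 minutes with inhibitor.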
For orientation: In TR-FRET formats the signal depends on donor and acceptor labels being close together.
For `Cc1cc(Nc2nccc(C(F)(F)F)n2)cc(-c2ccnc(N3CCN(C)CC3)c2)c1` [Example 15.61, N-{3-methyl-5-[2-(4-methylpiperazin-1-yl)pyridin-4-yl]phenyl}-4-(trifluoromethyl)pyrimidin-2-amine], the IC50 lay within 100 to 1000 nM.

For the molecule `Cc1cc(Nc2nccc(C(F)(F)F)n2)cc(-c2ccc(NC3(C(=O)O)CC3)nc2)c1` [Example 7.81, 1-{[5-(3-methyl-5-{[4-(trifluoromethyl)pyrimidin-2-yl]amino}phenyl)pyridin-2-yl]amino}cyclopropanecarboxylic acid], the IC50 was 100 to 1000 nM.

As to `Cc1cc(Nc2nccc(C(F)(F)F)n2)cc(-c2ccnc(N3CCCC4(CCNC4=O)C3)c2)c1` (stereo not drawn) [Example 15.29, 7-[4-(3-methyl-5-{[4-(trifluoromethyl)pyrimidin-2-yl]amino}phenyl)pyridin-2-yl]-2,7-diazaspiro[4.5]decan-1-one], the IC50 was < 100 nM.

Turning to `Cc1cc(Nc2nccc(C(F)(F)F)n2)cc(-c2ccc(N3CCC[C@@H](C(=O)N4CCC[C@@H](C(=O)O)C4)C3)nc2)c1` [Example 7.149, (3R)-1-({(3R)-1-[5-(3-methyl-5-{[4-(trifluoromethyl)pyrimidin-2-yl]amino}phenyl)pyridin-2-yl]piperidin-3-yl}carbonyl)piperidine-3-carboxylic acid], the IC50 was < 100 nM.

Take `Cc1cc(Nc2nccc(C(F)(F)F)n2)cc(-c2ccnc(C3(O)CCC(=O)CC3)c2)c1` [Example 9.2, 4-Hydroxy-4-[4-(3-methyl-5-{[4-(trifluoromethyl)pyrimidin-2-yl]amino}phenyl)pyridin-2-yl]cyclohexanone]: the IC50 was < 100 nM.

As to `Cc1cc(Nc2nccc(C(F)(F)F)n2)cc(-c2ccc(N3CCCC3C(=O)O)nc2)c1` (single isomer, unassigned) [Example 7.122, 1-[5-(3-methyl-5-{[4-(trifluoromethyl)pyrimidin-2-yl]amino}phenyl)pyridin-2-yl]proline], the IC50 was < 100 nM.

Turning to `Cc1cc(Nc2nccc(C(F)(F)F)n2)cc(-c2ccnc(N3CCC[C@H]3C(N)=O)c2)c1` [Example 15.73, 1-[4-(3-methyl-5-{[4-(trifluoromethyl)pyrimidin-2-yl]amino}phenyl)pyridin-2-yl]-L-prolinamide], the IC50 is < 100 nM.

For the molecule `Cc1cc(Nc2nccc(C(F)(F)F)n2)cc(-c2ccnc(NC3COC3)c2)c1` [Example 15.62, N-{3-methyl-5-[2-(oxetan-3-ylamino)pyridin-4-yl]phenyl}-4-(trifluoromethyl)pyrimidin-2-amine], the IC50 fell in the range of 100 to 1000 nM.

With `Cc1cc(Nc2nccc(C(F)(F)F)n2)cc(-c2ccc(NC(=O)CC#N)nc2)c1` [Example 2.109, 2-cyano-N-[5-(3-methyl-5-{[4-(trifluoromethyl)pyrimidin-2-yl]amino}phenyl)pyridin-2-yl]acetamide], the IC50 was < 100 nM.

As to `Cc1cc(Nc2nccc(C(F)(F)F)n2)cc(-c2ccc(C(=O)NCc3cnn(C)c3)nc2)c1` [Example 16.14, N-[(1-methyl-1H-pyrazol-4-yl)methyl]-5-(3-methyl-5-{[4-(trifluoromethyl)pyrimidin-2-yl]amino}phenyl)pyridine-2-carboxamide], the IC50 lay in the range of 100 to 1000 nM.

On to `C=C(F)CNC(=O)c1ccc(-c2cc(C)cc(Nc3nccc(C(F)(F)F)n3)c2)cn1` [Example 16.28, N-(2-fluoroprop-2-en-1-yl)-5-(3-methyl-5-{[4-(trifluoromethyl)pyrimidin-2-yl]amino}phenyl)pyridine-2-carboxamide], for which the IC50 lay in the range of 100 to 1000 nM.

In the case of `CCOC(=O)CCc1ccc(-c2cc(C)cc(Nc3nccc(C4CC4)n3)c2)nc1` [Example 2.37, ethyl 3-(6-{3-[(4-cyclopropylpyrimidin-2-yl)amino]-5-methylphenyl}pyridin-3-yl)propanoate], the IC50 fell in the range of 100 to 1000 nM.

In the case of `Cc1cc(Nc2nccc(C(F)(F)F)n2)cc(-c2ccnc(NCCC(N)=O)c2)c1` [Example 15.59, N~3~-[4-(3-methyl-5-{[4-(trifluoromethyl)pyrimidin-2-yl]amino}phenyl)pyridin-2-yl]-beta-alaninamide], the IC50 was < 100 nM.

`Cc1cc(Nc2nccc(C(F)(F)F)n2)cc(-c2ccc(N)nc2)c1` [Example 4.2, N-[3-(6-aminopyridin-3-yl)-5-methylphenyl]-4-(trifluoromethyl)pyrimidin-2-amine]: the IC50 is < 100 nM.

Regarding `Cc1cc(Nc2nccc(C(F)(F)F)n2)cc(-c2ccc(C(=O)NCCS(N)(=O)=O)nc2)c1` [Example 16.50, 5-(3-methyl-5-{[4-(trifluoromethyl)pyrimidin-2-yl]amino}phenyl)-N-(2-sulfamoylethyl)pyridine-2-carboxamide], the IC50 is < 100 nM.

Regarding `Cc1cc(Nc2nccc(C(F)(F)F)n2)cc(-c2ccc(CNC(N)=O)nc2)c1` [Example 17.2, 1-{[5-(3-methyl-5-{[4-(trifluoromethyl)pyrimidin-2-yl]amino}phenyl)pyridin-2-yl]methyl}urea], the IC50 was < 100 nM.

As for `Cc1cc(Nc2nccc(C(F)(F)F)n2)cc(-c2ccc(N3CCC[C@@H](C(=O)N4CCC[C@H](C(=O)O)C4)C3)nc2)c1` [Example 7.150, (3S)-1-({(3R)-1-[5-(3-methyl-5-{[4-(trifluoromethyl)pyrimidin-2-yl]amino}phenyl)pyridin-2-yl]piperidin-3-yl}carbonyl)piperidine-3-carboxylic acid], the IC50 is < 100 nM.

As to `Cc1cc(Nc2nccc(C(F)(F)F)n2)cc(-c2ccc(C3(O)COC(C)(C)OC3)nc2)c1` [Example 9.32, 2,2-dimethyl-5-[5-(3-methyl-5-{[4-(trifluoromethyl)pyrimidin-2-yl]amino}phenyl)pyridin-2-yl]-1,3-dioxan-5-ol], the IC50 was 100 to 1000 nM.

For `Cc1cc(Nc2nccc(C(F)(F)F)n2)cc(-c2ccc(C34CCC(C(=O)O3)C(C)(C)C4)nc2)c1` (single isomer, unassigned) [Example 9.9, (1R,4S or 1S,4R)-5,5-dimethyl-1-[5-(3-methyl-5-{[4-(trifluoromethyl)pyrimidin-2-yl]amino}phenyl)pyridin-2-yl]-2-oxabicyclo[2.2.2]octan-3-one], the IC50 fell in the range of 100 to 1000 nM.

As to `Cc1cc(Nc2nccc(C3CC3)n2)cc(-c2cc(CCC(=O)O)ccn2)c1` [Example 2.24, 3-(2-{3-[(4-cyclopropylpyrimidin-2-yl)amino]-5-methylphenyl}pyridin-4-yl)propanoic acid], the IC50 was < 100 nM.

For the molecule `CCOC(=O)CCc1cc(-c2cc(C)cc(Nc3nccc(C)n3)c2)ccn1` [Example 2.134, ethyl 3-(4-{3-methyl-5-[(4-methylpyrimidin-2-yl)amino]phenyl}pyridin-2-yl)propanoate], the IC50 was in the range of 100 to 1000 nM.

As to `Cc1cc(Nc2nccc(C(F)(F)F)n2)cc(-c2ccnc(N3CC4CNC(CO)C4C3)c2)c1` (stereo not drawn) [Example 15.84, {5-[4-(3-methyl-5-{[4-(trifluoromethyl)pyrimidin-2-yl]amino}phenyl)pyridin-2-yl]octahydropyrrolo[3,4-c]pyrrol-1-yl}methanol], the IC50 is 1000 to 10000 nM.

Consider `Cc1cc(Nc2nccc(C(F)(F)F)n2)cc(-c2ccnc(N3CCCC(F)(F)C3)c2)c1` [Example 15.68, N-{3-[2-(3,3-difluoropiperidin-1-yl)pyridin-4-yl]-5-methylphenyl}-4-(trifluoromethyl)pyrimidin-2-amine], for which the IC50 lay in the range of 100 to 1000 nM.

As for `CC(C)(Nc1ccc(-c2cccc(Nc3nccc(C(F)(F)F)n3)c2)cn1)C(=O)O` [Example 7.125, 2-methyl-N-[5-(3-{[4-(trifluoromethyl)pyrimidin-2-yl]amino}phenyl)pyridin-2-yl]alanine], the IC50 is < 100 nM.

`Cc1cc(Nc2nccc(C(F)(F)F)n2)cc(-c2ccc(N3CCC[C@@H]3C(=O)O)nc2)c1` [Example 7.110, 1-[5-(3-methyl-5-{[4-(trifluoromethyl)pyrimidin-2-yl]amino}phenyl)pyridin-2-yl]-D-prolilne]: the IC50 was < 100 nM.

Turning to `Cc1cc(Nc2nccc(C(F)(F)F)n2)cc(-c2ccncc2)c1` [Example 2.124, N-(3-methyl-5-pyridin-4-ylphenyl)-4-(trifluoromethyl)pyrimidin-2-amine], the IC50 is < 100 nM.

With `Cc1cc(Nc2nccc(C(F)(F)F)n2)cc(-c2ccc(C(C)(O)CO)nc2)c1` (stereo not drawn) [Example 9.1, 2-[5-(3-Methyl-5-{[4-(trifluoromethyl)pyrimidin-2-yl]amino}phenyl)pyridin-2-yl]propane-1,2-diol], the IC50 was < 100 nM.

Take `CCN(C)C(=O)c1ccc(-c2cc(C)cc(Nc3nccc(C(F)(F)F)n3)c2)cn1` [Example 16.59, N-ethyl-N-methyl-5-(3-methyl-5-{[4-(trifluoromethyl)pyrimidin-2-yl]amino}phenyl)pyridine-2-carboxamide]: the IC50 is < 100 nM.

Turning to `Cc1cc(Nc2nccc(C(F)(F)F)n2)cc(-c2ccnc(N3CCCC3C(N)=O)c2)c1` (stereo not drawn) [Example 15.55, 1-[4-(3-methyl-5-{[4-(trifluoromethyl)pyrimidin-2-yl]amino}phenyl)pyridin-2-yl] prolinamide], the IC50 is < 100 nM.

Take `Cc1cc(Nc2nccc(C(F)(F)F)n2)cc(-c2ccc(C(=O)NS(C)(=O)=O)nc2)c1` [Example 16.1, N-(methylsulfonyl)-5-(3-methyl-5-{[4-(trifluoromethyl)pyrimidin-2-yl]amino}phenyl)pyridine-2-carboxamide]: the IC50 was < 100 nM.

On to `Cc1cc(Nc2nccc(C(F)(F)F)n2)cc(-c2cncc(C(C)(O)C(C)O)c2)c1` (stereo not drawn) [Example 9.73, 2-[5-(3-methyl-5-{[4-(trifluoromethyl)pyrimidin-2-yl]amino}phenyl)pyridin-3-yl]butane-2,3-diol], for which the IC50 was < 100 nM.

`Cc1cc(Nc2nccc(C(F)(F)F)n2)cc(-c2ccnc(C(C)(C)O)c2)c1` [Example 9.61, 2-[4-(3-methyl-5-{[4-(trifluoromethyl)pyrimidin-2-yl]amino}phenyl)pyridin-2-yl]propan-2-ol]: the IC50 was < 100 nM.

The assay is the same for the next values; noted with them: recombinant GST-hSYK, 25 μM ATP, HTRF; read-out: IC50 (inhibition of human Syk activity).
Turning to `Cc1cc(Nc2nccc(C(F)(F)F)n2)cc(-c2ccc(C(C)(O)CO)nc2)c1` (stereo not drawn) [Example 9.1, 2-[5-(3-Methyl-5-{[4-(trifluoromethyl)pyrimidin-2-yl]amino}phenyl)pyridin-2-yl]propane-1,2-diol], the IC50 is 17.9 nM.
